From patent US20220079993A1, “NON-NATURALLY OCCURRING THERMOGENIC ADIPOCYTES, METHODS OF MAKING, AND METHODS OF USE THEREOF” (University of Georgia Research Foundation, Inc., priority 2019, published 2022)

How the values were obtained:
DIO2 = assay: qRT-PCR of DIO2 transcript in beige adipocytes -/+ forskolin; format: cell-based, human; details: beige adipocytes stimulated with FSK (20 uM)
Experimental: FIG. 2A is a bar graph showing RNA expression levels by qRT-PCR for indicated genes (UCP1, DIO2) for adipose derived stem cells (ADSCs), GlucoCytes (GC), or GC with forskolin (FSK, 20 uM). FIG. 2B is a bar graph showing quantitation of immunostaining data (UCP1) from 6 independent fields of view. FIGS. 2C and 2D are bar graphs showing qRT-PCR of UCP1 of GC induced from an additional line purchased from ThermoFisher (2C) and an immortalized ADSC line purchased from ATCC (ASC52-telo) (2D). Transcript levels were determined by qRT-PCR. n=3 for each independent replicate. Data are mean+/−standard deviation. *P<0.0.05, **P<0.01, ***P<0.005. […] Cell lysates were collected at indicated days and RNA was isolated and analyzed by qRT-PCR for marker expression. […] Each line was differentiated for 21 days to beige adipocytes using B-8 medium and transcript levels of UCP1 (2Q), PPARGC1 (2R), IRF4 (2S), and ADIPOQ (2T) were measured by Taqman qRT-PCR for indicated genes +/−FSK for 6 hours (20 μM).
Cells were washed with DPBS, lysed directly on the plate and used for RNA isolation with the E.Z.N.A Total RNA Kit (Omega, R6834-02) according to manufacturer instructions. RNA quantitation was performed with the Biotek Synergy 2 plate reader and cDNA was synthesized using 1 ug of RNA with the iScript cDNA Synthesis Kit (Bio-Rad, 1708841). […]

GC = assay: Seahorse Mito Stress Test; format: cell-based, human; details: forskolin 20 μM for 24 hours
Experimental: FIG. 5A is a line graph showing the oxygen consumption rate from a Seahorse Mito Stress Test assay of GC compared to white adipocytes (WA). Cells were stimulated with forskolin (FSK, 20 uM) for 24 hours prior to treatment, and oligomycin (3 μM), FCCP (3 μM), and antimycin a/rotenone (5 μM) were added at indicated time points. n=9, where n is the number of independent replicates for each cell type/condition. Assay was normalized to total protein content. FIG. 5B is a line graph showing extracellular acidification rate from the assay in FIG. 5A. FIGS. 5C-5E are bar graphs showing basal respiration rate (5C) from the assay maximal respiration (5D) and proton leak (5E) calculated from assay performed in FIG. 5A. FIG. 5F is a bar graph showing the results of a lipolysis assay of ADSCs or GC (BA), treated with forskolin for indicated time period. FIG. 5G is a bar graph showing quantification of thermogenic dye assay of GC with or without forskolin treatment. […]
To perform the assay, ADSCs were plated on XFe24 plates (Agilent) at 5000 cell/cm^2 and grown to confluency. […] Following the assay, cells were lysed using RIPA buffer and protein concentration was determined by Bradford assay. Data was normalized by protein concentration and analyzed in Wave software (Agilent).

C=C[C@@]1(C)CC(=O)[C@]2(O)[C@@]3(C)[C@@H](O)CCC(C)(C)[C@@H]3[C@H](O)[C@H](OC(C)=O)[C@@]2(C)O1 [Forskolin]
DIO2 transcript level compared to ADSCs (DIO2): 130 fold | Elevation of uncoupled respiration (proton leak) relative to basal conditions (GC): 64.7%
